Values belong to the sequence of their own block, whether it stands above or below them.
Molecular target: T1, MAL^TIR (Homo sapiens, UniProt P58753)
T1 construct: MAL (residues 79–221); 6xHis; made in house; host or cells: E. coli BL21 (DE3)
Experiment: T‐Surf phage library (P8 and P3) selection against MAL^TIR, four rounds, NGS read counts
Type: binding
Conditions: for Population: 4th round of selection against MAL TIR, share of NGS reads; for P3_MAL Rank (after) / P3_MAL Rank (before): P3 library; for P8_MAL Rank (after) / P8_MAL Rank (before): P8 library
Description: T‐Surf libraries were screened against the immobilized TIR domains of two major human TLR adaptor proteins, MAL^TIR and MyD88^TIR, allowing cross‐species selection of TIR‐binding motifs with 190 946 TIR‐derived peptides in a single binding assay (Scheme 1). Enriched phage pools from the fourth round of selection were analyzed using NGS after barcoding the peptide‐coding regions of the phage pools.
Phage display screening was performed by coating two wells of a 96‐well plate (Maxisorp, Thermo Fisher Scientific) with 100 µL of 5 µg mL^−1 TIR domains overnight; then, the coated wells were blocked with 200 µL of blocking buffer (0.2% BSA in PBS) and set aside for 1 h at 4 °C with gentle shaking. Next, 100 µL of the phage library was added to the wells and incubated for 1 h at room temperature (RT; 20 – 22 °C) with gentle shaking. The plate was washed four times with PBS containing 0.5% Tween‐20; the bound phages were eluted by adding 100 µL of 100 mM HCl to each well. The elute was neutralized with 10 µL of 1.0 M Tris‐HCl (pH 11.0). E. coli TG1 cells were grown to the log phase (A600 = ≈0.6), and 1 mL of the culture was incubated with 100 µL of the eluted phages for 30 min at 37 °C, with shaking at 200 rpm. Next, 1 µL of M13KO7 helper phages was added, followed by incubation for 45 min at 37 °C, with shaking. Subsequently, the cells were transferred to 25 mL of 2× yeast extract tryptone/carbenicillin/kanamycin medium and incubated overnight at 37 °C with shaking at 200 rpm. The amplified phages were precipitated with 20% PEG‐8000/2.5 M NaCl to be used for the next round of selection.
The naïve T‐Surf libraries in P8 and P3 and the enriched phage pools after four rounds were barcoded for NGS as previously described.^[ [59] ^] Briefly, 5 µL of the phage pool was used as a template for 20 cycles of a 50 µL PCR reaction using […] each of forward and reverse barcoded primers and PrimeSTAR Max DNA Polymerase. The PCR products were purified using Expin Gel SV (GeneAll). The NGS samples were quantified using qPCR, following the qPCR Quantification Protocol Guide (KAPA Library Quantification kits for Illumina Sequencing Platform), and qualified using the TapeStation High Sensitivity D1000 ScreenTape (Agilent Technologies). The indexed libraries were further sequenced by Macrogen (Seoul, Republic of Korea) using the NovaSeq platform (Illumina) with 100 bp paired‐end reads. The reads were demultiplexed by barcodes and filtered for an average Phred quality score of at least 30, followed by trimming the flanking consensus sequences using Cutadapt (version 2.3). Peptide sequence populations were analyzed according to the read counts.

[1] = P3_MAL: rank by count after grouping
[2] = P3_MAL: rank by count before grouping
[3] = P8_MAL pool: P8 T-Surf phage library
[4] = selection against MAL, rank after grouping
[5] = selection against MAL, rank before grouping
[6] = selection against MAL, rank by count after grouping
[7] = selection against MAL, rank by count before grouping
[8] = selection against MAL TIR, rank by count after grouping
[9] = selection against MAL TIR, rank by count before grouping
[10] = 4R selection against MAL, rank after grouping
[11] = 4R selection against MAL, rank before grouping
[12] = P8_MAL: rank by count after grouping
[13] = P8_MAL: rank by count before grouping
[14] = P3_MAL pool: P3 T-Surf phage library

T1 sequence (P58753 79-221): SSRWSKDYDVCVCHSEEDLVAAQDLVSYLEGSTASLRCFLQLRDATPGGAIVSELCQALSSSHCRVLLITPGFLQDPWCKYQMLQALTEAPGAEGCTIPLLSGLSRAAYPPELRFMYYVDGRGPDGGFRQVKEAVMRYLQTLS

Rank (after) [1]: 397
Rank (before) [2]: 2901
Sequence: HQKGSYGEAPAEHEKR

Population [3]: 0.00309%
Sequence: WFYERLVSLLLRDTKV

P3_MAL Rank (after) [4]: 516
P3_MAL Rank (before) [5]: 2047
Sequence: ESILNHPRRSSQILSN

P8_MAL Rank (after) [8]: 243
P8_MAL Rank (before) [9]: 1654
Sequence: AFFWARLQSVLGNPTM

P8_MAL Rank (after) [4]: 562
P8_MAL Rank (before) [5]: 1912
Sequence: AFLNTLLKNLTRPPNF

P8_MAL Rank (after) [4]: 494
P8_MAL Rank (before) [5]: 1818
Sequence: AFLYSFLTNLTHPTEN

Rank (after) [12]: 448
Rank (before) [13]: 1959
Sequence: ALLNNFLIKLTHPSII

P3_MAL Rank (after) [4]: 520
P3_MAL Rank (before) [5]: 1989
Sequence: DWIREQLRPALKKRLP

P8_MAL Rank (after) [8]: 248
P8_MAL Rank (before) [9]: 2657
Sequence: NHWRNALTAAANLIGW

P3_MAL Rank (after) [10]: 582
P3_MAL Rank (before) [11]: 1294
Sequence: WHFHLRLRMLALLQKM

Rank (after) [1]: 452
Rank (before) [2]: 1992
Sequence: EWILDTEARIWGWRQA

P8_MAL Rank (after) [8]: 278
P8_MAL Rank (before) [9]: 1946
Sequence: AYANFRQGLLRLPELLR

P3_MAL Rank (after) [10]: 630
P3_MAL Rank (before) [11]: 2594
Sequence: RNFAGLLYDRLTKWA

P8_MAL Rank (after) [4]: 521
P8_MAL Rank (before) [5]: 2615
Sequence: TFLGNLYNPLVQAGLH

P3_MAL Rank (after) [10]: 601
P3_MAL Rank (before) [11]: 1134
Sequence: FLSHLHRYLVQRGV

P8_MAL Rank (after) [4]: 510
P8_MAL Rank (before) [5]: 2323
Sequence: PFFWEQLRTVLGKPTK

P8_MAL Rank (after) [10]: 663
P8_MAL Rank (before) [11]: 1473
Sequence: YFLHFLLFSLPATEYI

P3_MAL Rank (after) [6]: 726
P3_MAL Rank (before) [7]: 2689
Sequence: PNLRTTVPTYLMRTKT

P8_MAL Rank (after) [4]: 497
P8_MAL Rank (before) [5]: 1828
Sequence: AFLYTFLGHLYNALVQAGIH

P3_MAL Rank (after) [6]: 748
P3_MAL Rank (before) [7]: 3167
Sequence: SSFREGLWRPPELSEK

P3_MAL Rank (after) [10]: 669
P3_MAL Rank (before) [11]: 1224
Sequence: WFFQEKVKIFEARKTI

P8_MAL Rank (after) [4]: 514
P8_MAL Rank (before) [5]: 1851
Sequence: AFLYTFLINLTHPTKV

P8_MAL Rank (after) [4]: 538
P8_MAL Rank (before) [5]: 2102
Sequence: LFFWESLKQLLRSVGH

Population [14]: 0.00338%
Rank (after) [1]: 114
Rank (before) [2]: 186
Sequence: YAFTGHLHRYLMRTKT

P3_MAL Rank (after) [6]: 738
P3_MAL Rank (before) [7]: 1300
Sequence: WHFHLRLRMHDLLQNI

Rank (after) [12]: 481
Rank (before) [13]: 2445
Sequence: SEFLGAAEKRAGQSDD

Population [3]: 0.00371%
Sequence: WFYERLVSLFLRDTKV

P3_MAL Rank (after) [6]: 772
P3_MAL Rank (before) [7]: 2410
Sequence: RGFRSHLRQHLQAKDH

Rank (after) [12]: 435
Rank (before) [13]: 1924
Sequence: ALFWEQLRTVLGKLTM

P8_MAL Rank (after) [6]: 720
P8_MAL Rank (before) [7]: 2656
Sequence: NLWRNALTAAANLSSW

Rank (after) [12]: 425
Rank (before) [13]: 1374
Sequence: WFMMTFRTVLHHVHDV

P3_MAL Rank (after) [6]: 702
P3_MAL Rank (before) [7]: 3249
Sequence: NGYGSELIKEIVDTGV

The remaining lines, values behind:

Sequence: LVAHEISKKMNIFATV
P3_MAL Rank (after) [6]: 764
P3_MAL Rank (before) [7]: 2101

Sequence: EKIVEWVWEKAHNRFK
P3_MAL Rank (after) [6]: 770
P3_MAL Rank (before) [7]: 2080

Sequence: QLIQQWSELHLLQLHL
P8_MAL Rank (after) [10]: 621
P8_MAL Rank (before) [11]: 2387

Sequence: AFLWTQLKSVLGNPTM
P8_MAL Rank (after) [8]: 242
P8_MAL Rank (before) [9]: 1764

Sequence: WFYERLVSLILPVTKV
P8_MAL Rank (after) [8]: 229
P8_MAL Rank (before) [9]: 1264

Sequence: SFLYTLLSNLTHPTNF
P8_MAL Rank (after) [8]: 265
P8_MAL Rank (before) [9]: 1449

Sequence: YFLHFLLVSRAEAEFI
P8_MAL Rank (after) [4]: 565
P8_MAL Rank (before) [5]: 1499

Sequence: NQCRNALTPAAKLSSL
P3_MAL Rank (after) [4]: 538
P3_MAL Rank (before) [5]: 3423

Sequence: HLLKWKEALHQFHSWV
Population [14]: 0.00488%

Sequence: AFLYTFLKNLMRKPTF
Rank (after) [12]: 422
Rank (before) [13]: 1874

Sequence: LFFYESLKHLLRIDCR
P8_MAL Rank (after) [10]: 646
P8_MAL Rank (before) [11]: 2170

Sequence: SSFRERLWRLLELRKK
Rank (after) [1]: 128
Rank (before) [2]: 3190

Sequence: DPKLNTGESIAPELLR
P8_MAL Rank (after) [4]: 493
P8_MAL Rank (before) [5]: 1991

Sequence: YAFTGHLHSYLVQRGV
Population [14]: 0.00338%

Sequence: WLYERLVSLILRDTQV
Rank (after) [12]: 108
Rank (before) [13]: 1426

Sequence: RNFVAYLFRALANKGI
Population [3]: 0.00371%

Sequence: LNWGDPYFWRKLRYAM
Rank (after) [1]: 185
Rank (before) [2]: 2196

Sequence: HLLKEFGKKLITAFKN
P3_MAL Rank (after) [10]: 646
P3_MAL Rank (before) [11]: 2779

Sequence: DLLNGFIALKSTVIEN
P8_MAL Rank (after) [6]: 717
P8_MAL Rank (before) [7]: 1982

Sequence: VEPTQVRKLRGAVEKV
P3_MAL Rank (after) [6]: 743
P3_MAL Rank (before) [7]: 1658

Sequence: DHHLNPPPGKAIKPEMLG
Rank (after) [1]: 442
Rank (before) [2]: 1951

Sequence: ALQYTILINLTNPTNF
P8_MAL Rank (after) [10]: 665
P8_MAL Rank (before) [11]: 1962

Sequence: LFFWESLKQPLRSEGR
P8_MAL Rank (after) [10]: 608
P8_MAL Rank (before) [11]: 2112

Sequence: SSFREGLASAGTEQK
Rank (after) [1]: 156
Rank (before) [2]: 1037

Sequence: WFYERMVSLILRDTKL
Rank (after) [12]: 136
Rank (before) [13]: 1262

Sequence: SSWWILKELQEILNYQ
P8_MAL Rank (after) [8]: 279
P8_MAL Rank (before) [9]: 2529

Sequence: YAARANSGFHTFRDND
P3_MAL Rank (after) [6]: 740
P3_MAL Rank (before) [7]: 1489

Sequence: YAFTGHLHRYLAQRGV
Population [14]: 0.00488%

Sequence: RYIMPHPQVLSQKKQQ
P3_MAL Rank (after) [6]: 725
P3_MAL Rank (before) [7]: 2329

Sequence: HLLDKLRSNGISPFID
Rank (after) [1]: 461
Rank (before) [2]: 2772

Sequence: LFFGKALNSCCVAIA
P8_MAL Rank (after) [10]: 649
P8_MAL Rank (before) [11]: 2136

Sequence: WFYERLVCLLLRDSKV
Rank (after) [12]: 458
Rank (before) [13]: 1279

Sequence: WFYERLVSLILRVTKI
P8_MAL Rank (after) [4]: 553
P8_MAL Rank (before) [5]: 1199

Sequence: NQRRNAVTAAAKLSGC
Rank (after) [1]: 469
Rank (before) [2]: 3476

Sequence: WFYERLVNLNLRDTKV
Rank (after) [12]: 140
Rank (before) [13]: 1242

Sequence: DTRYTFIAHLSHALNL
P8_MAL Rank (after) [10]: 651
P8_MAL Rank (before) [11]: 2040

Sequence: WHLHLRLRMHDLLQQM
P3_MAL Rank (after) [4]: 537
P3_MAL Rank (before) [5]: 1311

Sequence: QLIQQWIELHAPAAS
Rank (after) [12]: 151
Rank (before) [13]: 969

Sequence: YAFTGHLHHIWCSVA
P3_MAL Rank (after) [6]: 686
P3_MAL Rank (before) [7]: 1430

Sequence: AFLYAFLINLTHPTNI
Rank (after) [12]: 142
Rank (before) [13]: 1812

Sequence: CFYERLVNLILRDTKV
P8_MAL Rank (after) [8]: 205
P8_MAL Rank (before) [9]: 1107

Sequence: WFYERLVSLIMRATKV
Rank (after) [12]: 117
Rank (before) [13]: 1222

Sequence: AFLGHLYNALVQAGIH
Population [3]: 0.00371%

Sequence: AFFGEQVSPVLGKPTM
Rank (after) [12]: 426
Rank (before) [13]: 1748

Sequence: NFLGLLYNELVQAGLH
P8_MAL Rank (after) [8]: 259
P8_MAL Rank (before) [9]: 2675

Sequence: KMQKWKDALYEAAKLG
P3_MAL Rank (after) [8]: 250
P3_MAL Rank (before) [9]: 3687

Sequence: PNLRTKVMNYLIRTKP
P3_MAL Rank (after) [10]: 643
P3_MAL Rank (before) [11]: 2733

Sequence: WFYEFLVFLILRDTKV
P8_MAL Rank (after) [8]: 251
P8_MAL Rank (before) [9]: 1143

Sequence: ARFKDMIINKWRTALTQAAN
P3_MAL Rank (after) [4]: 513
P3_MAL Rank (before) [5]: 1847

Sequence: YFLHLLLFSRPETEYN
P8_MAL Rank (after) [4]: 552
P8_MAL Rank (before) [5]: 1509

Sequence: KHCWDRLCYMVNDSSR
P3_MAL Rank (after) [6]: 721
P3_MAL Rank (before) [7]: 3468

Sequence: KNLFYDLVSKNIRTFM
P3_MAL Rank (after) [6]: 712
P3_MAL Rank (before) [7]: 3473

Sequence: LFFWESLKQLLRAMA
Rank (after) [12]: 473
Rank (before) [13]: 2095

Source: publication PMC11714206, “Massively Parallel Screening of Toll/Interleukin‐1 Receptor (TIR)‐Derived Peptides Reveals Multiple Toll‐Like Receptors (TLRs)‐Targeting Immunomodulatory Peptides” (Advanced Science, 2024)
